Reference: BigSolDB 2.1

Oc1ccc(Cl)cc1C=Nc1ccccn1
solubility (mole fraction)
Conditions | 268.15 K | 273.15 K | 278.15 K | 283.15 K | 288.15 K | 293.15 K | 298.15 K | 303.15 K
in THF | 0.0285 | 0.0323 | 0.0362 | 0.0406 | 0.0466 | 0.0545 | 0.0649 | 0.0735
in dichloromethane | 0.00836 | 0.0124 | 0.0166 | 0.0193 | 0.0247 | 0.0306 | 0.0355 | 0.0429
in diethyl ether | 0.00329 | 0.00427 | 0.00513 | 0.00605 | 0.00728 | 0.00844 | 0.0105 | 0.0121
in toluene | 0.0103 | 0.0111 | 0.0136 | 0.017 | 0.0192 | 0.0228 | 0.0277 | 0.0339

Oc1ccccc1/C=N/c1ccccn1
solubility (mole fraction)
Conditions | 268.15 K | 273.15 K | 278.15 K | 283.15 K | 288.15 K | 293.15 K | 298.15 K
in diethyl ether | 0.0581 | 0.0673 | 0.0873 | 0.107 | 0.14 | 0.17 | 0.231
in ethanol | 0.0099 | 0.0121 | 0.0152 | 0.0199 | 0.0266 | 0.035 | 0.0489
in methanol | 0.00796 | 0.0107 | 0.0146 | 0.0187 | 0.0255 | 0.0346 | 0.0503
in toluene | 0.135 | 0.174 | 0.215 | 0.26 | 0.316 | 0.361 | 0.423
